Entries after “also recorded” stand apart in the source; their conditions may differ. Like-named read-outs stand apart in the source and are kept apart here.
Experiments:
[1] = system: CAR-positive CD3-positive T cells co-cultured with Nalm-6 cells; assay: CART proliferation in co-culture with Nalm-6 cells with RAD001; assay type: cell-based; conditions: low doses of RAD001, 4 days of co-culture with Nalm-6
Protocol: CARTs were co-cultured with Nalm-6 cells in the presence of different concentrations of RAD001. The number of CAR-positive CD3-positive T cells (black) and total T cells (gray) was assessed after 4 days of co-culture.

[2] = system: CD4+ and CD8+ CAR T cells; assay: In vivo proliferation of humanized CD19 CART cells with and without RAD001; conditions: 0.003 mg/kg daily with huCTL019
Protocol: FIG. 49A and FIG. 49B show in vivo proliferation of humanized CD19 CART cells with and without RAD001 dosing. […] Circles denote PBS; squares denote huCTL019; triangles denote huCTL019 with 3 mg/kg RAD001; inverted triangles denote huCTL019 with 0.3 mg/kg RAD001; diamonds denote huCTL019 with 0.03 mg/kg RAD001; and circles denote huCTL019 with 0.003 mg/kg RAD001.

[3] = system: huCART19 cells; assay: CART proliferation in 4 day co-culture with Nalm-6 in presence of RAD001; assay type: cell-based, human
Protocol: To evaluate the functionality of CARTs, the T cells are thawed and counted, and viability is assessed by Cellometer. The number of CAR-positive cells in each culture is normalized using non-transduced T cells (UTD). The impact of RAD001 on CARTs was tested in titrations with RAD001, starting at 50 nM. The target cell line used in all co-culture experiments is Nalm-6, a human pre-B cell acute lymphoblastic leukemia (ALL) cell line expressing CD19 and transduced to express luciferase.
For measuring the proliferation of CARTs, T cells are cultured with target cells at a ratio of 1:1. The assay is run for 4 days, when cells are stained for CD3, CD4, CD8 and CAR expression. The number of T cells is assessed by flow cytometry using counting beads as reference.

[4] = RAD001 PK analysis in NSG mice with NALM6-luc tumors; assay type: in vivo; conditions: for concentration at 24 h: NSG, mouse
Protocol: (§1) A concentrated micro-emulsion of 50 mg equal to 1 mg RAD001 was formulated and then resuspended in D5W (dextrose 5% in water) at the time of dosing. Mice were orally dosed daily (via oral gavage) with 200 μl of the desired doses of RAD001.
Mice were dosed daily with RAD001 starting 7 days post tumor implantation. Dosing groups were as follows: 0.3 mg/kg, 1 mg/kg, 3 mg/kg, and 10 mg/kg. Mice were bled on days 0 and 14 following the first and last dose of RAD001, at the following time points for PK analysis: 15 minutes, 30 minutes, 1 hour, 2 hours, 4 hours, 8 hours, 12 hours, and 24 hours.

[5] = system: NALM6-luc tumors; assay: NALM6-luc tumor growth under daily oral RAD001; assay type: in vivo, NSG mice; conditions: daily oral dosing of RAD001 alone
Protocol: NALM6-luc cells were grown and expanded in vitro in RPMI supplemented with 10% heat inactivated fetal bovine serum. The cells were then transferred to a 15 ml conical tube and washed twice with cold sterile PBS. NALM6-luc cells were then counted and resuspended at a concentration of 10×10^6 cells per milliliter of PBS. The cells were placed on ice and immediately (within one hour) implanted in the mice. NALM6-luc cells were injected intravenously via the tail vein in a 100 μl volume, for a total of 1×10^6 cells per mouse.
as §1

[6] = system: huCAR19 CAR T cells; assay: CAR T cell expansion in vivo with RAD001 (FACS); parameters: species or system NSG mice; conditions: lowest doses of RAD001, daily oral
Protocol: Mice were administered 5×10^6 CAR T cells 7 days after tumor implantation. Cells were partially thawed in a 37 degree Celsius water bath and then completely thawed by the addition of 1 ml of cold sterile PBS to the tube containing the cells. The thawed cells were transferred to a 15 ml falcon tube and adjusted to a final volume of 10 mls with PBS. The cells were washed twice at 1000 rpm for 10 minutes each time and then counted on a hemocytometer. T cells were then resuspended at a concentration of 50×10^6 CAR T cells per ml of cold PBS and kept on ice until the mice were dosed. The mice were injected intravenously via the tail vein with 100 μl of the CAR T cells for a dose of 5×10^6 CAR T cells per mouse. Eight mice per group were treated either with 100 μl of PBS alone (PBS), or humanized CD19 CAR T cells.
as §1
Based on these doses, huCAR19 CAR T cells were dosed with and without RAD001 to determine the proliferative ability of these cells. The highest dose used was 3 mg/kg based on the levels of RAD001 in the blood 24 hours after dosing. […] Mice were monitored via FACS for T cell expansion.

concentration at 24 h ([4]; blood, oral, 0.3 mg/kg, 24 hours after the final dose, read-out: concentration of RAD001): > 10 nM
concentration at 24 h ([4]; whole blood, 24 hours after dosing, 0.3 mg/kg oral, day 0 and day 14, read-out: RAD001 concentrations in the blood): > 10 nM
stability in the blood of tumor bearing mice ([4]; daily oral dosing): fairly stable
SMILES: CO[C@H]1C[C@@H]2CC[C@@H](C)[C@@](O)(O2)C(=O)C(=O)N2CCCC[C@H]2C(=O)O[C@H]([C@H](C)C[C@@H]2CC[C@@H](OCCO)[C@H](OC)C2)CC(=O)[C@H](C)/C=C(\C)[C@@H](O)[C@@H](OC)C(=O)[C@H](C)C[C@H](C)/C=C/C=C/C=C/1C [RAD001, everolimus]
proliferation of CAR-expressing, transduced T cells [1]: enhanced
in vivo CAR T cell proliferation [2]: enhancement in CAR T cell proliferation
proliferation of huCART19 cells ([3]; 0.0032 and 0.016 nM RAD001): higher than observed without the addition of RAD001
expansion of huCART19 cells ([3]; less than 0.016 nM of RAD001): expanded
impact on the growth of NALM6-luc tumors [5]: did not have an impact
proliferation of the CAR T cells in vivo [6]: enhanced proliferation; also recorded: more evident and prolonged with the CD4^+ CAR T cells

From patent US11981731B2, “Targeting cytotoxic cells with chimeric receptors for adoptive immunotherapy” (Novartis AG, priority 2014, dated 2024)
